In this experiment the test system is 648629-189-R-J1-PDC complex spheroids viability. The experiment in a line: Anticancer human tumor 648629-189-R-J1-PDC patient-derived bladder carcinoma cell line growth inhibition [CLK]. To be noted: for viability, T/C: stronger effect = lower value. In short, it runs like this: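 Patient-derived tumor cells grown as complex spheroids with HUVEC endothelial cells and mesenchymal stem cells, treated with drug combinations. Concentrations descend in half-log steps from near clinical Cmax, or from 10 microM if Cmax unknown.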

The mark [1] stands for this setting: curve of first compound, second compound 0.0316 µM.
Setting [2] is: curve of first compound, second compound 0.1 µM.
Where [3] appears, read: curve of first compound, second compound 0.316 µM.
[4] abbreviates: curve of first compound, second compound 1 µM.
Setting [5] is: curve of first compound, second compound 3.16 µM.
Where [6] appears, read: curve of first compound, second compound 10 µM.
Setting [7] is: second compound 0.0316 µM, first compound 0.0316 µM.
The mark [8] stands for this setting: second compound 0.0316 µM, first compound 0.1 µM.
Setting [9] is: second compound 0.0316 µM, first compound 0.316 µM.
Setting [10] is: second compound 0.0316 µM, first compound 1 µM.
[11] abbreviates: second compound 0.1 µM, first compound 0.0316 µM.
Setting [12] is: second compound 0.1 µM, first compound 0.1 µM.
Where [13] appears, read: second compound 0.1 µM, first compound 0.316 µM.
[14] abbreviates: second compound 0.1 µM, first compound 1 µM.
[15] abbreviates: second compound 0.316 µM, first compound 0.0316 µM.
[16] abbreviates: second compound 0.316 µM, first compound 0.1 µM.
Setting [17] is: second compound 0.316 µM, first compound 0.316 µM.
Where [18] appears, read: second compound 0.316 µM, first compound 1 µM.
The mark [19] stands for this setting: second compound 1 µM, first compound 0.0316 µM.
The mark [20] stands for this setting: second compound 1 µM, first compound 0.1 µM.
[21] abbreviates: second compound 1 µM, first compound 0.316 µM.
Where [22] appears, read: second compound 1 µM, first compound 1 µM.
Setting [23] is: second compound 3.16 µM, first compound 0.0316 µM.
The mark [24] stands for this setting: second compound 3.16 µM, first compound 0.1 µM.
Setting [25] is: second compound 3.16 µM, first compound 0.316 µM.
Where [26] appears, read: second compound 3.16 µM, first compound 1 µM.
Setting [27] is: second compound 10 µM, first compound 0.0316 µM.
The mark [28] stands for this setting: second compound 10 µM, first compound 0.1 µM.
Setting [29] is: second compound 10 µM, first compound 0.316 µM.
The mark [30] stands for this setting: second compound 10 µM, first compound 1 µM.

SMILES strings stand for the structures. Where “and” joins values, the source holds several entries; their conditions need not be identical. Identical values can stand only once.
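For viability, T/C in this document: drug exposure lasted seven days before viability readout; 100% = DMSO vehicle control wells.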

Regarding `COc1c(OCCCN2CCOCC2)ccc2c3n(c(=NC(=O)c4cnc(N)nc4)nc12)CCN3` + CN1CCN(c2cc(C(=O)Nc3cc4cc(-c5cnn(C)c5)ccc4cn3)ccn2)CC1, the IC50 (in general, the point on the concentration scale where inhibition reaches its midpoint) runs as follows: under setting [1], 91.3 nM; under setting [2], 73.3 nM; under setting [3], under 3.16 nM; under setting [4], under 3.16 nM; under setting [5], under 3.16 nM; under setting [6], under 3.16 nM. In addition, the viability, T/C (as a rule, the ratio of treated to control) by setting is: (second compound 0.0316 µM, first compound 0.00316 µM) 114%; (second compound 0.0316 µM, first compound 0.01 µM) 102%; under setting [7], 88.8%; under setting [8], 46.6%; under setting [9], 18.3%; under setting [10], 12.1%. Further, the viability, T/C was 118% (second compound 0.1 µM, first compound 0.00316 µM); 101% (second compound 0.1 µM, first compound 0.01 µM); 72.4% under setting [11]; 43% under setting [12]; 18.3% under setting [13]; 10.7% under setting [14]. For the same compound, the viability, T/C reads like this: (second compound 0.316 µM, first compound 0.00316 µM) 45.6%; (second compound 0.316 µM, first compound 0.01 µM) 43.8%; under setting [15], 37.4%; under setting [16], 22.5%; under setting [17], 11%; under setting [18], 5.26%. Also, the viability, T/C by setting is: (second compound 1 µM, first compound 0.00316 µM) 1.95%; (second compound 1 µM, first compound 0.01 µM) 0.55%; under setting [19], 0.91%; under setting [20], 0.76%; under setting [21], 0.14%; under setting [22], 0.11%. Moreover, the viability, T/C runs as follows: (second compound 3.16 µM, first compound 0.00316 µM) 0.14%; (second compound 3.16 µM, first compound 0.01 µM) 0.49%; under setting [23], 0.15%; under setting [24], 0.11%; under setting [25], 0.11%; under setting [26], 0.58%. The viability, T/C was 0.07% (second compound 10 µM, first compound 0.00316 µM); 0.14% (second compound 10 µM, first compound 0.01 µM); 0.42% under setting [27]; 0.17% under setting [28]; 1.19% under setting [29]; 1.16% under setting [30].
For the compound `CC1(C)CCC(CN2CCN(c3ccc(C(=O)NS(=O)(=O)c4ccc(NCC5CCOCC5)c([N+](=O)[O-])c4)c(Oc4cnc5[nH]ccc5c4)c3)CC2)=C(c2ccc(Cl)cc2)C1`, the viability, T/C by setting is: (compound 0.0316 µM) 102% and 96.3%; (compound 0.1 µM) 94.1% and 86%; (compound 0.316 µM) 99.4% and 93.7%; (compound 1 µM) 88.7% and 93.4%; (compound 3.16 µM) 84.9% and 93.4%; (compound 10 µM) 62% and 110%. Further, the IC50 (curve of compound) was over 10000 nM.
For `CCN1CCN(Cc2ccc(Nc3ncc(F)c(-c4cc(F)c5nc(C)n(C(C)C)c5c4)n3)nc2)CC1`, the viability, T/C runs as follows: (compound 0.00316 µM) 104% and 106%; (compound 0.01 µM) 99.1% and 94.2%; (compound 0.0316 µM) 102%; (compound 0.1 µM) 101% and 93.4%; (compound 0.316 µM) 122% and 121%; (compound 1 µM) 124% and 117%. Besides, the IC50 (curve of compound) was over 1000 nM.
On to `CC(=O)O[C@H]1C(=O)[C@@]2(C)[C@H]([C@H](OC(=O)c3ccccc3)[C@]3(O)C[C@H](OC(=O)[C@H](O)[C@@H](NC(=O)c4ccccc4)c4ccccc4)C(C)=C1C3(C)C)[C@]1(OC(C)=O)CO[C@@H]1C[C@@H]2O`, for which the viability, T/C (compound 0.0316 µM) was 10.4% and 11.2%; the viability, T/C (compound 0.1 µM) is 10.1% and 12.7%; the viability, T/C (compound 0.316 µM) was 10.1% and 11.7%; the viability, T/C (compound 1 µM) is 12.9% and 13.5%; the viability, T/C (compound 3.16 µM) was 10.8% and 10.5%; the viability, T/C (compound 10 µM) is 13.3% and 15.2%. Besides, where the note is “curve of compound”, the IC50 was under 31.6 nM.
Consider `C=CC(=O)N1CCN(c2nc(=O)n(-c3c(C)ccnc3C(C)C)c3nc(-c4c(O)cccc4F)c(F)cc23)C(C)C1` (configuration not stated) + CN1CCN(c2cc(C(=O)Nc3cc4cc(-c5cnn(C)c5)ccc4cn3)ccn2)CC1, for which the IC50 was over 10000 nM under setting [1]; over 10000 nM under setting [2]; 1030 nM under setting [3]; under 31.6 nM under setting [4]; under 31.6 nM under setting [5]; under 31.6 nM under setting [6]. The viability, T/C is 109% under setting [7]; 113% under setting [8]; 104% under setting [9]; 115% under setting [10]; 108% (second compound 0.0316 µM, first compound 3.16 µM); 89% (second compound 0.0316 µM, first compound 10 µM). Further, the viability, T/C is, setting by setting: under setting [11], 89.6%; under setting [12], 99.5%; under setting [13], 99.4%; under setting [14], 114%; (second compound 0.1 µM, first compound 3.16 µM) 98.9%; (second compound 0.1 µM, first compound 10 µM) 102%. Also, the viability, T/C by setting is: under setting [15], 47.3%; under setting [16], 55.5%; under setting [17], 50.5%; under setting [18], 50.4%; (second compound 0.316 µM, first compound 3.16 µM) 38%; (second compound 0.316 µM, first compound 10 µM) 20.2%. In addition, the viability, T/C by setting is: under setting [19], 0.58%; under setting [20], 0.57%; under setting [21], 0.3%; under setting [22], 0.5%; (second compound 1 µM, first compound 3.16 µM) 0.34%; (second compound 1 µM, first compound 10 µM) 0.13%. The viability, T/C is 0.13% under setting [23]; 0.17% under setting [24]; 0.14% under setting [25]; 0.13% under setting [26]; 0.11% (second compound 3.16 µM, first compound 3.16 µM); 0.11% (second compound 3.16 µM, first compound 10 µM). Besides, the viability, T/C under setting [27] was 0.15%; the viability, T/C under setting [28] is 0.19%; the viability, T/C under setting [29] is 0.16%; the viability, T/C under setting [30] is 0.18%; the viability, T/C (second compound 10 µM, first compound 3.16 µM) was 0.22%; the viability, T/C (second compound 10 µM, first compound 10 µM) is 0.15%.
Consider `C=C(F)C(=O)N1CCN(c2nc(OCC3CCCN3C)nc3c2CCN(c2cccc4cccc(Cl)c24)C3)CC1CC#N` (configuration not stated), for which the viability, T/C is 103% and 97.9% (compound 0.0316 µM); 97.9% and 98.3% (compound 0.1 µM); 101% and 99% (compound 0.316 µM); 87.8% and 95.9% (compound 1 µM); 98% and 93.7% (compound 3.16 µM); 0.23% and 0.2% (compound 10 µM). Besides, the IC50 (curve of compound) is 5550 nM and 5420 nM.

The values are drawn from PubChem BioAssay AID2060602 (Molecular Pharmacology Branch, DTP, NCI, 2025).
